Experimental data taken from the supplement of paper PMC10011410.

Legend:
U-2 OS [1] = assay: cell painting activity score (Mahalanobis distance from DMSO wells); higher = stronger morphological phenotype; conditions: 24 h
Experimental: (§1)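 Cell painting in U-2 OS cells (384-well, about 1,500 cells per well), compound exposure 24 h, usually six 2-fold concentrations from 20 to 0.625 uM (some compounds higher or lower). Relative cell count is the cell number per well relative to DMSO wells. Activity score is the Mahalanobis distance of the morphological profile from DMSO control wells. Mean of four technical replicate plates.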

U-2 OS [2] = assay: relative cell count vs DMSO (cell painting) (fraction of DMSO control); higher = more cells remaining (less cytotoxic); conditions: 24 h
Experimental: as §1

U-2 OS [3] = assay: AUC of culture confluence over time (live-cell imaging) (AUC (confluence % x time)); higher = more confluent culture (less growth inhibition)
Experimental: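 Live-cell Incucyte imaging of U-2 OS cells in F-12K medium. Compounds were tested mostly at 5, 10 and 20 uM, and cells were imaged every 4 h for up to 60 h. Value is the area under the curve of phase-contrast confluence over time.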

Cc1cnc(CNC(=O)c2c(=O)c3ccc(N4CCCN(C)CC4)nc3n3c2sc2ccccc23)cn1
Conditions | AUC of culture confluence over time, U-2 OS [3] | cell painting activity score, U-2 OS [1] | relative cell count, U-2 OS [2]
0.625 µM | – | 9.34 | 0.709
1.25 µM | – | 10.9 | 0.607
2.5 µM | – | 10.3 | 0.591
5 µM | 33.9 | 10.4 | 0.572
10 µM | 34.5 | 11.4 | 0.559
20 µM | 35 | 11 | 0.548

O=c1c(O)c(-c2ccc(O)c(O)c2)oc2cc(O)ccc12
Conditions | AUC of culture confluence over time, U-2 OS [3] | cell painting activity score, U-2 OS [1] | relative cell count, U-2 OS [2]
0.625 µM | – | 5.44 | 0.969
1.25 µM | – | 5.04 | 0.938
2.5 µM | – | 4.93 | 0.943
5 µM | 52.8 | 4.23 | 0.939
10 µM | 52 | 4.83 | 0.932
20 µM | 47.7 | 7.46 | 0.945

O=C1C=C(Cl)C(=O)c2ccccc21
Conditions | cell painting activity score, U-2 OS [1] | relative cell count, U-2 OS [2]
0.625 µM | 7.9 | 0.745
1.25 µM | 18.1 | 0.492
2.5 µM | 19.4 | 0.216
5 µM | 17.9 | 0.29
10 µM | 22.2 | 0.169
20 µM | 25.4 | 0.267

CN[C@@H]1C[C@H]2O[C@@](C)([C@@H]1OC)n1c3ccccc3c3c4c(c5c6ccccc6n2c5c31)C(=O)NC4
Conditions | cell painting activity score, U-2 OS [1] | relative cell count, U-2 OS [2]
0.019532 µM | 16.8 | 0.757
0.07812 µM | 19.8 | 0.467
0.3124 µM | 21.2 | 0.294
0.3126 µM | 25.8 | 0.0507
1.25 µM | 24.2 | 0.095
5 µM | 25.5 | 0.127
20 µM | 24.1 | 0.128

COS(=O)(=O)O.C[n+]1c2ccccc2nc2ccccc21
Conditions | cell painting activity score, U-2 OS [1] | relative cell count, U-2 OS [2]
0.625 µM | 4.8 | 0.956
1.25 µM | 5.06 | 0.92
2.5 µM | 9.91 | 0.807
5 µM | 14.3 | 0.265
10 µM | 19.6 | 0.282
20 µM | 23.1 | 0.0549

CC(C)C[C@@H](C=O)NC(=O)[C@@H](CC(C)C)NC(=O)[C@H](CC(C)C)NC(=O)OCc1ccccc1
Conditions | cell painting activity score, U-2 OS [1] | relative cell count, U-2 OS [2]
0.625 µM | 4.19 | 1
1.25 µM | 4.34 | 0.959
2.5 µM | 5.35 | 0.944
5 µM | 5.4 | 0.993
10 µM | 3.89 | 0.986
20 µM | 7.43 | 0.909

COc1ccc2cc1Oc1ccc(cc1)C[C@H]1c3cc(c(OC)cc3CCN1C)Oc1c(OC)c(OC)cc3c1[C@H](C2)N(C)CC3
Conditions | cell painting activity score, U-2 OS [1] | relative cell count, U-2 OS [2]
0.625 µM | 5.28 | 1.08
1.25 µM | 5.79 | 1.06
2.5 µM | 5.97 | 1.04
5 µM | 16.8 | 1.07
10 µM | 28.3 | 0.973
20 µM | 14.8 | 0.322

CO[C@@H]1[C@H](N(C)C(=O)c2ccccc2)C[C@H]2O[C@]1(C)n1c3ccccc3c3c4c(c5c6ccccc6n2c5c31)C(=O)NC4
Conditions | cell painting activity score, U-2 OS [1] | relative cell count, U-2 OS [2]
0.625 µM | 13.9 | 1.02
1.25 µM | 15.2 | 0.757
2.5 µM | 19.8 | 0.456
5 µM | 22.9 | 0.362
10 µM | 23.7 | 0.347
20 µM | 24.4 | 0.354

Oc1ccc(/C=C\c2cc(O)cc(O)c2)cc1
U-2 OS [3]
Conditions | AUC of culture confluence over time
5 µM | 42.1
10 µM | 46.9
20 µM | 39.8

O=C1Cc2c([nH]c3ccc(Br)cc23)-c2ccccc2N1
Conditions | cell painting activity score, U-2 OS [1] | relative cell count, U-2 OS [2]
0.625 µM | 7.76 | 0.977
1.25 µM | 10.8 | 0.959
2.5 µM | 12.7 | 0.911
5 µM | 13.7 | 0.835
10 µM | 14.7 | 0.557
20 µM | 13.6 | 0.164

O=C(O)C1(C(=O)O)CCC1.[NH2-].[NH2-].[Pt+2]
Conditions | cell painting activity score, U-2 OS [1] | relative cell count, U-2 OS [2]
0.625 µM | 4.1 | 0.92
1.25 µM | 4.15 | 0.853
2.5 µM | 4.49 | 0.786
5 µM | 4.29 | 0.855
10 µM | 5.7 | 0.844
20 µM | 6.66 | 0.814

O=C(Nc1ccc([N+](=O)[O-])cc1Cl)c1cc(Cl)ccc1O
Conditions | cell painting activity score, U-2 OS [1] | relative cell count, U-2 OS [2]
0.625 µM | 5.54 | 1.13
1.25 µM | 8.61 | 1.05
2.5 µM | 10.3 | 1.06
5 µM | 16 | 0.922
10 µM | 17.7 | 0.808
20 µM | 14.8 | 0.753

CCN(CC)CCNC(=O)c1c(C)[nH]c(/C=C2\C(=O)Nc3ccc(F)cc32)c1C
Conditions | cell painting activity score, U-2 OS [1] | relative cell count, U-2 OS [2]
0.625 µM | 11.2 | 0.983
1.25 µM | 11.5 | 0.945
2.5 µM | 11.3 | 0.983
5 µM | 12.4 | 0.917
10 µM | 14.5 | 0.831
20 µM | 25.1 | 0.503

CC(C)(C)C1=CC(=O)C=CC1=O
Conditions | cell painting activity score, U-2 OS [1] | relative cell count, U-2 OS [2]
0.625 µM | 8.46 | 0.952
1.25 µM | 9.82 | 0.904
2.5 µM | 11.5 | 0.867
5 µM | 13.4 | 0.435
10 µM | 20.3 | 0.32
20 µM | 17.6 | 0.124

Oc1ccc(/C=C/c2cc(O)cc(O)c2)cc1
U-2 OS [3]
Conditions | AUC of culture confluence over time
5 µM | 49
10 µM | 46.4
20 µM | 42.5

[Cl][Pt+2][Cl].[NH2-].[NH2-]
Conditions | cell painting activity score, U-2 OS [1] | relative cell count, U-2 OS [2]
0.2062 µM | 5.52 | 0.954
0.4124 µM | 4.94 | 0.964
0.825 µM | 3.93 | 0.902
1.65 µM | 5.77 | 0.701
3.3 µM | 3.26 | 0.937
6.6 µM | 9.14 | 0.666

CCN(CC)CCCC(C)Nc1ccnc2cc(Cl)ccc12 (stereo not drawn)
Conditions | cell painting activity score, U-2 OS [1] | relative cell count, U-2 OS [2]
0.625 µM | 4.84 | 1.2
1.25 µM | 5.94 | 1.12
2.5 µM | 4.8 | 1.09
5 µM | 4.43 | 1.19
10 µM | 4.73 | 1.08
20 µM | 6.72 | 1.09

CCc1c2c(nc3ccc(O)cc13)-c1cc3c(c(=O)n1C2)COC(=O)[C@]3(O)CC
Conditions | cell painting activity score, U-2 OS [1] | relative cell count, U-2 OS [2]
0.625 µM | 12 | 0.523
1.25 µM | 12.3 | 0.525
2.5 µM | 12.7 | 0.515
5 µM | 12.3 | 0.467
10 µM | 12.1 | 0.446
20 µM | 14.9 | 0.482

C=CCNC1=C2C[C@@H](C)C[C@H](OC)[C@H](O)[C@@H](C)/C=C(\C)[C@H](OC(N)=O)[C@@H](OC)/C=C\C=C(/C)C(=O)NC(=CC1=O)C2=O
Conditions | cell painting activity score, U-2 OS [1] | relative cell count, U-2 OS [2]
0.625 µM | 16.6 | 0.814
1.25 µM | 19.1 | 0.697
2.5 µM | 19.1 | 0.61
5 µM | 19.1 | 0.586
10 µM | 19.2 | 0.589
20 µM | 18.3 | 0.549

CC(C)(C)c1cc(O)ccc1O
Conditions | cell painting activity score, U-2 OS [1] | relative cell count, U-2 OS [2]
0.625 µM | 4.14 | 0.908
1.25 µM | 4.2 | 0.958
2.5 µM | 5.45 | 0.948
5 µM | 5.28 | 0.913
10 µM | 4.94 | 0.945
20 µM | 7.97 | 0.949

CC(C)C[C@@H](C=O)NC(=O)[C@H](CC(C)C)NC(=O)[C@H](CC(C)C)NC(=O)OCc1ccccc1
Conditions | cell painting activity score, U-2 OS [1] | relative cell count, U-2 OS [2]
0.625 µM | 5.55 | 0.974
1.25 µM | 9.38 | 0.824
2.5 µM | 15.5 | 0.479
5 µM | 15.7 | 0.226
10 µM | 16 | 0.124
20 µM | 17.7 | 0.103

COC1=C(OC)C(=O)c2ccccc2C1=O
Conditions | cell painting activity score, U-2 OS [1] | relative cell count, U-2 OS [2]
0.625 µM | 7.97 | 0.99
1.25 µM | 8.63 | 0.895
2.5 µM | 10.7 | 0.81
5 µM | 18.9 | 0.489
10 µM | 21.2 | 0.46
20 µM | 24.7 | 0.149

CCN1C(=O)C=CC1=O
Conditions | cell painting activity score, U-2 OS [1] | relative cell count, U-2 OS [2]
0.625 µM | 4.77 | 0.938
1.25 µM | 5.69 | 0.928
2.5 µM | 7.04 | 0.891
5 µM | 9.18 | 0.724
10 µM | 20.6 | 0.254
20 µM | 26.6 | 0.0684
40 µM | 5.94 | 0.911
80 µM | 6.33 | 0.885

C[C@H](CC[C@@]1(O)O[C@H]2C[C@H]3[C@@H]4CC=C5C[C@@H](O[C@@H]6O[C@H](CO)[C@@H](O[C@@H]7O[C@@H](C)[C@H](O)[C@@H](O)[C@H]7O)[C@H](O)[C@H]6O[C@@H]6O[C@@H](C)[C@H](O)[C@@H](O)[C@H]6O)CC[C@]5(C)[C@H]4CC[C@]3(C)[C@H]2[C@@H]1C)CO[C@@H]1O[C@H](CO)[C@@H](O)[C@H](O)[C@H]1O
Conditions | cell painting activity score, U-2 OS [1] | relative cell count, U-2 OS [2]
0.625 µM | 14.9 | 0.811
1.25 µM | 14.4 | 0.808
2.5 µM | 15.1 | 0.734
5 µM | 16.6 | 0.502
10 µM | 21 | 0.0412
20 µM | 22.7 | 0.0114

COc1c(O)c2c(=O)cc3c4c5c(cc(=O)c6c(O)c(OC)c(CC(C)O)c(c(c1CC(C)O)c24)c65)OCO3 (stereo not drawn)
Conditions | cell painting activity score, U-2 OS [1] | relative cell count, U-2 OS [2]
0.625 µM | 4.68 | 0.971
1.25 µM | 7.7 | 0.918
2.5 µM | 10.5 | 0.859
5 µM | 13 | 0.682
10 µM | 12 | 0.499
20 µM | 13.9 | 0.366

N#CC(C#N)=NNc1cccc(Cl)c1
Conditions | cell painting activity score, U-2 OS [1] | relative cell count, U-2 OS [2]
0.625 µM | 5.76 | 0.975
1.25 µM | 5.02 | 0.949
2.5 µM | 7.58 | 0.98
5 µM | 9.31 | 0.897
10 µM | 13.4 | 0.711
20 µM | 16.2 | 0.491

Cc1ccc(S(=O)(=O)/C=C/C#N)cc1
Conditions | cell painting activity score, U-2 OS [1] | relative cell count, U-2 OS [2]
0.625 µM | 10.4 | 0.923
1.25 µM | 12.9 | 0.942
2.5 µM | 16.7 | 0.678
5 µM | 18.3 | 0.485
10 µM | 21 | 0.231
20 µM | 23.7 | 0.286
